In data set [1] the test system is herpes simplex virus type 1 (HSV-1) using the KOS strain. The data set can be described thus: Anti-HSV assay, inhibition of virus-induced cytopathic effect in Vero cells. The class given is cell-based. As to conditions: HSV-1 KOS, 72 hours at 37°C. As for the experimental part:
(§1) The in vitro antiviral activity of BU-4724V was assessed against the herpes simplex virus type 1 (HSV-1) using the KOS strain. The assay was done according to the reported protocol of C. McLaren et al. in Antiviral Research, 3, 223-234, (1986) with minor modification. Briefly, 50 µl of Eagle's MEM medium containing BU-4724V and then 200 µl of the Vero cell suspension (2 X 10⁴ cells/200 µl) were added to a well of a 96-well microtiter plate. To the well, 50µl of medium containing approximately 30 times of the 50% tissue culture infectious dose (50% TCID) of virus was added. In a parallel experiment, the same set of cells without virus infection was prepared, which was for the determination of cytotoxicity of the sample. After 72 hours incubation at 37°C, the inhibition degree of virus-induced cytopathic effect and cytotoxicity by the sample were determined, respectively. The ID₅₀ is expressed as the concentration of a compound showing 50% growth inhibition of the cytopathic effect and the TD₅₀ as the concentration of a compound showing 50% growth inhibition of the cells in the absence of virus. Acyclovir was used as the reference compound for anti-HSV activity in the assay.

The next data set concerns Vero cell. As to the kind of experiment: Cytotoxicity in Vero cells without virus infection. Format: cell-based. Particulars: Vero cells in the absence of virus, 72 hours at 37°C. As for the experimental part: as §1
The subject of a further data set is HIV-1 RF. As to the kind of experiment: XTT anti-HIV assay in CEM-SS cells. Format: cell-based, human immunodeficiency virus. As to conditions: HIV-1 RF strain, read-out: IC₅₀.
The next data set has as its system HIV-1 IIIb. The data set can be described thus: XTT anti-HIV assay in CEM-SS cells. Format: cell-based, human immunodeficiency virus. Particulars: HIV-1 IIIb strain, read-out: IC₅₀.
The test system of the next data set is HIV-2 CBL-20. The data set can be described thus: XTT anti-HIV assay in CEM-SS cells. As to conditions: HIV-2 CBL-20 strain, read-out: IC₅₀. Format: cell-based, human immunodeficiency virus.
The nature of data set [2]: Cytotoxicity in CEM-SS cells (XTT assay). Format: cell-based. Particulars: human, 50% of viable cells of untreated control, read-out: cytotoxicity IC₅₀.
Experimental: (§2) The antiviral effect is expressed as the inhibitory concentration of a compound which reduces the number of viruses of the infected culture to 50% of that of the drug - untreated, control culture (IC₅₀). The cytotoxicity is expressed as the concentration of a compound which yields 50% of the number of viable cells of the untreated control cultures (IC₅₀). In this assay, 2',3'-Dideoxyinosine (ddI, Videx®) was also tested for anti-HIV activity.
Data set [3] has as its system CEM-SS cells. As to the kind of experiment: Cytotoxicity in CEM-SS cells (XTT assay). Format: cell-based. As to conditions: result in words.
Experimental: as §2
The next data set relates to S. typhi 901. Format: cell-based. Particulars: 901, 18 h, pH 7.
Data set [4] relates to human immunodeficiency virus. The data set can be described thus: XTT anti-HIV assay in CEM-SS cells (strain not stated). The class given is cell-based. Particulars: Human immunodeficiency virus 1, anti-HIV activity, read-out: IC₅₀.
Data set [5] relates to CEM-SS cells.
Experimental: as §2

The source of these data is patent publication EP0603031A2, “Antiviral antibiotic BU-4724V and preparation thereof” (Bristol-Myers Squibb Company, priority 1992, dated 1994).

Where two headings read alike, the source gives them in different places. Positions of bridges follow the written chain, without caps; N, C: chain ends. Residues, ends and D or L forms follow the SMILES beside them. Where only a bound is given, the exact number is not on record here.

Experimental for HIV-1 IIIb: as §2
Experimental for HIV-1 RF: as §2
Text for HIV-2 CBL-20: The CEM-SS cells were obtained from Peter Nara, AIDS Research and Reference Program, Division of AIDS, NIAID, NIH.
as §2

Turning to `Nc1nc2c(ncn2COCCO)c(=O)[nH]1` [Acyclovir], the ID₅₀ in data set [1] amounted to 0.28 µg/mL. The compound also gave a TD₅₀ in the data set with Vero cell of over 100 µg/mL.
Turning to `CC[C@H](C)[C@@H]1NC(=O)[C@H](C)NC(=O)[C@H](Cc2ccc(O)cc2)NC(=O)CNC(=O)[C@@H]2CSSC[C@@H]3NC(=O)C[C@H](NC(=O)[C@H](CC(N)=O)NC(=O)[C@H](CSSC[C@@H](C(=O)N[C@@H](Cc4ccccc4)C(=O)N[C@@H](Cc4c[nH]c5ccccc45)C(=O)O)NC(=O)[C@H](C(C)C)NC1=O)NC(=O)[C@H](CO)NC(=O)CNC(=O)[C@H](C(C)C)NC(=O)CNC(=O)[C@H](CC(C)C)NC3=O)C(=O)N[C@@H](Cc1ccccc1)C(=O)N[C@@H](C)C(=O)NCC(=O)N2` [BU-4724V] (CLGVGSCNDFAGCGYAIVCFW-OH; disulfide 1-13, 7-19; lactam N-9; C-terminus assumed), the ID₅₀ in [1] came out at 48 µg/mL. This compound showed a TD₅₀ in the data set on Vero cell of over 100 µg/mL. The IC50 in the data set on HIV-1 RF is 90 to 600 nM; in the data set with HIV-1 IIIb it was 460 nM; with HIV-2 CBL-20, 230 nM. In addition, the CC50 in data set [2] is about 150000 nM. Also, the cytotoxicity entry in the data set with CEM-SS cells [3] was “very weak cytotoxicity”. The compound further came in with an MIC against S. typhi 901 of over 100 µg/mL. Besides, the solubility result is “slightly soluble” (in alkaline water); “soluble” (in dimethyl sulfoxide, dimethylformamide, methanol and ethanol); “insoluble” (in water, ethyl acetate, chloroform, benzene, n-hexane and petroleum ether).
Turning to `O=c1[nH]cnc2c1ncn2[C@H]1CC[C@@H](CO)O1` [ddI, 2',3'-Dideoxyinosine], the IC50 in data set [4] lay in the range of 1000 to 2000 nM. The cytotoxicity entry with CEM-SS cells [5] is on record as “very weak cytotoxicity”.
